Experimental data reported in PubChem BioAssay (NCI).
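Tested at 5 concentrations; 48 h exposure; 96-well plates; endpoints linearly interpolated, else capped at highest concentration. Definition used: TGI = concentration required for complete inhibition of growth.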

Tests used:
Assay in all cases: NCI-60 cell line screen, 48 h
A549 NSCLC = tested on: A549 NSCLC
LOX IMVI melanoma = tested on: LOX IMVI melanoma
KM12 colon = tested on: KM12 colon
CCRF-CEM leukemia = tested on: CCRF-CEM leukemia
MDA-N = tested on: MDA-N
CAKI-1 renal = tested on: CAKI-1 renal
OVCAR-5 ovarian = tested on: OVCAR-5 ovarian
SNB-75 CNS = tested on: SNB-75 CNS
A498 renal = tested on: A498 renal
TK-10 renal = tested on: TK-10 renal
MCF7 breast = tested on: MCF7 breast
RXF 393 renal = tested on: RXF 393 renal

SMILES	TGI (A549 NSCLC) [µM]	TGI (LOX IMVI melanoma) [µM]	TGI (KM12 colon) [µM]	TGI (CCRF-CEM leukemia) [µM]	TGI (MDA-N) [µM]	TGI (CAKI-1 renal) [µM]	TGI (OVCAR-5 ovarian) [µM]	TGI (SNB-75 CNS) [µM]	TGI (A498 renal) [µM]	TGI (TK-10 renal) [µM]	TGI (MCF7 breast) [µM]	TGI (RXF 393 renal) [µM]
CC(C)=CCC[C@@H](C)[C@H]1CC[C@@]2(C)[C@@H]3CC[C@H]4C(C)(C)[C@@H](O)CC[C@@]45C[C@@]35CC[C@]12C	48.1	56.5	> 100	63.5	> 100	> 100	> 100	> 100	> 94.3	> 100	> 100	45.1
COC1=C(C(c2cc(OC)c(OC)c(OC)c2)c2cc3c(cc2OC)OCO3)C(=O)OC1 (stereo not drawn)	> 67.1	> 100	40.9	> 68.8	17.1	> 100	> 100	> 64.3	> 71.9	> 73.2	> 82.3	43.6
COc1ccc2c(c1)/C(=C/c1c(O)[nH]c(=S)[nH]c1=O)C=N2	> 100	> 100	> 100	> 100	> 100	> 100	> 100	49.9	> 100	> 100	> 100	96.9
CC(C)(C)N(Cc1ccccc1)C(=O)/C=C\S(=O)c1ccccc1 (stereo not drawn)	25.4	5.7	18.1	> 44.9	8.64	18.4	28.8	23.1	26.5	18.5	16.4	13.8
CC[C@@H]1/C=C/C=C/C[C@H](C)[C@@H](O)[C@@H](C)C(=O)[C@H](C)[C@@H](O)[C@H](C)C(=O)[C@H](C)[C@@H](O)[C@H](C)/C=C/C(=O)O[C@H]2[C@@H](C)[C@@H](CC1)O[C@@]1(CC[C@@H](C)[C@@H](CC(C)O)O1)[C@@H]2C (stereo partly drawn)	> 16.9	> 25	> 21.5	> 14.4	> 17.6	> 25	15.4	> 7.9	11	> 23.6	7.49	9.44
Cc1cn([C@@H]2O[C@H](CO[Si](C)(C)C(C)(C)C)[C@]3(O[C@H]3C(=O)NO)[C@H]2O[Si](C)(C)C(C)(C)C)c(=O)[nH]c1=O	3.63	3.1	3.71	2.76	3.01	4.31	3.33	3.71	3.33	5.35	3.15	3.34
O=c1[nH]c(=S)[nH]cc1CN1CCOCC1	> 100	> 100	> 100	> 100	> 100	> 100	> 100	> 100	> 100	> 100	> 100	> 100
CN1CCN(c2cc3[nH]c4cc(O)cc(O)c4c(=O)c3cc2N)CC1	> 100	41.5	71.7	32.9	69	87	> 100	45.1	73.2	94.2	45.8	49
CC(=O)c1ccc(Br)cc1NC1=CC(=O)c2ncccc2C1=O	10.6	18.9	11.7	32.2	3.62	22.3	33.8	5.58	5.85	31.4	11.6	18.7
